In the experiment the test system is glyphosate-tolerant Palmer Amaranth (Amaranthus palmeri). Type of experiment: in vivo. Conditions: glyphosate 1.27 kg/ha; Composition C 1 liter/ha; two weeks after spraying. The procedure: Various plant treatment products comprising (i) select plant treatment components (e.g., pesticides, fungicides, herbicides) and (ii) one or more microbial fermentation product formulations (Composition A, B, C, and combinations) were tested on (1) rice (Oryza sativa) infected by Sheath Blight Rhizoctonia solani, (2) soybean (Glycine max) infected by Soybean Rust (Phakopsora pachyrhizi), (3) wheat (Triticum aestivum) infected by Stripe Rust (Puccinia striiformis), (4) corn (Zea mays) infected by Gray Leaf Spot (Cercospora zeae-maydis), (5) creeping bentgrass (Agrostis stolonifera) infected by dollar spot (Sclerotina homoeocarpa), and (6) glyphosate-tolerant Palmer Amaranth (Amaranthus palmeri) weed, and compared to controls, including plant treatment component(s) alone.
To test the effects of the inventive plant treatment product on weed survival in herbicide-tolerant Palmer Amaranth (Amaranthus palmeri) plants, the plant treatment product (Composition C+herbicide) or herbicide component (alone) were applied to weeds, in greenhouse conditions. […] The measurements of dry shoot mass and dry root mass were taken two weeks after spraying. […] Thus, the inventive plant treatment product can enhance herbicide susceptibility in herbicide-tolerant plants.

Turning to `O=C(O)CNCP(=O)(O)O` [Herbicide, glyphosate], the “Palmer Amaranth root dry weight per plant in greenhouse conditions” value was 0.768; the “Palmer Amaranth root dry weight, change versus Untreated Control” value is given as −40.9%; the “Palmer Amaranth root fresh weight per plant in greenhouse conditions” value is 4.70; the “Palmer Amaranth root fresh weight, change versus Untreated Control” value was −51.3%. Moreover, the “Palmer Amaranth shoot dry weight per plant in greenhouse conditions” value stood at 5.31; the “Palmer Amaranth shoot dry weight, change versus Untreated Control” value is −7.01%; the “Palmer Amaranth shoot fresh weight per plant in greenhouse conditions” value worked out at 15.0; the “Palmer Amaranth shoot fresh weight, change versus Untreated Control” value is −20.6%.
